Molecules are shown by their SMILES. A value given as a limit tells only on which side of the number the result lay.

The assay concerns the target T1, full-length human PKCι (Homo sapiens, UniProt P41743).
T1 construct: Recombinant, full-length human PKCι expressed in Sf21 insect cells is also commercially available; purchased EMD Millipore; host or cells: Sf21 insect cells (baculovirus)
T1 sequence (P41743 1-596): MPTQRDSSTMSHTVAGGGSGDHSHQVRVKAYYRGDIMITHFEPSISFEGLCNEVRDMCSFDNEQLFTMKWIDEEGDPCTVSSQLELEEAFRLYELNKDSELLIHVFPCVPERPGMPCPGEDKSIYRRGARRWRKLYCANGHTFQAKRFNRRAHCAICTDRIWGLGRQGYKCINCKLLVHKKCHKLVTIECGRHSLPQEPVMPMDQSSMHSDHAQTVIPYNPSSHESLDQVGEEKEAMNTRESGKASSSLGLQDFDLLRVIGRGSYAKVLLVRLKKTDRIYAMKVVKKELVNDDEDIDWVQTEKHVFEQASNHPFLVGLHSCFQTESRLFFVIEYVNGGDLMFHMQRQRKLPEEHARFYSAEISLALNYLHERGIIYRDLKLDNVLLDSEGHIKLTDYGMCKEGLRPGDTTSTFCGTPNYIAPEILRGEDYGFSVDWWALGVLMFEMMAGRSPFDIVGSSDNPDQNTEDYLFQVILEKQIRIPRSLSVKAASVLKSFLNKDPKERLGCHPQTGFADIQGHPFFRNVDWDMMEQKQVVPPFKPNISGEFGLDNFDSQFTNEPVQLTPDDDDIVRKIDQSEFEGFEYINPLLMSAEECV
In words: PKCι IC50 IMAP fluorescence polarisation assay, full-length enzyme, 150 μM ATP. The note with it: read-out: IC50 in IMAP assay against full length PKCi at 150 μM ATP. Format: biochemical. A digest of the protocol:
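IMAP fluorescence polarisation kinase assay: 15 pM baculovirus-expressed human PKCiota with 100 nM FAM-pseudosubstrate peptide and 150 μM ATP, 1 h at 25 °C. IMAP detection reagent then 2 h at 25 °C before FP measurement. Inhibition referenced to no-compound and no-enzyme controls for IC50 fitting.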
As to `COc1nc(-c2cc3c(-c4nc(N5CCC6CNCCC65)c5c(C6CC6)cncc5n4)ccnc3[nH]2)cs1` (stereo not drawn) [Example 118, 5-Cyclopropyl-2-[2-(2-methoxy-thiazol-4-yl)-1H-pyrrolo[2,3-b]pyridin-4-yl]-4-(octahydro-pyrrolo[3,2-c]pyridin-1-yl)-pyrido[3,4-d]pyrimidine], the 50% inhibitory concentration (IC50) was less than 100 nM.

On to `CSc1cc2c(-c3nc(N(C)C4CCNCC4)c4c(C5CC5)cncc4n3)ccnc2[nH]1` [Example 119, [5-Cyclopropyl-2-(2-methylsulfanyl-1H-pyrrolo[2,3-b]pyridin-4-yl)-pyrido[3,4-d]pyrimidin-4-yl]-methyl-piperidin-4-yl-amine], for which the IC50 is less than 100 nM.

Turning to `CS(=O)(=O)c1cc2c(-c3nc(N4CCNCC4)c4c(C5CCC5)cncc4n3)ccnc2[nH]1` [Example 120, 5-Cyclobutyl-2-(2-methanesulfonyl-1H-pyrrolo[2,3-b]pyridin-4-yl)-4-piperazin-1-yl-pyrido[3,4-d]pyrimidine], the IC50 was less than 100 nM.

Consider `N[C@H]1C[C@@H](Nc2nc(-c3ccnc4[nH]c5ccccc5c34)nc3cncc(C4CCC4)c23)C1` [Example 121, cis-[5-Cyclobutyl-2-(9H-pyrido[2,3-b]indol-4-yl)-pyrido[3,4-d]pyrimidin-4-yl]-cyclobutane-1,3-diamine], for which the 50% inhibitory concentration (IC50) was less than 100 nM.

On to `OC1CNCCC(Nc2nc(-c3ccnc4[nH]c5ccccc5c34)nc3cncc(C4CCC4)c23)C1` (stereo not drawn) [Example 122, 5-[5-Cyclobutyl-2-(9H-pyrido[2,3-b]indol-4-yl)-pyrido[3,4-d]pyrimidin-4-ylamino]-azepan-3-ol], for which the IC50 was less than 100 nM.

`Fc1cc(F)c(Nc2cc(-c3nc(N4CCC5NCCCC54)c4c(C5CCC5)cncc4n3)ccn2)nc1F` (stereo not drawn) [Example 123, {4-[5-Cyclobutyl-4-(octahydro-pyrrolo[3,2-b]pyridin-1-yl)-pyrido[3,4-d]pyrimidin-2-yl]-pyridin-2-yl}-(3,5,6-trifluoro-pyridin-2-yl)-amine]: the IC50 was less than 100 nM.

Take `Fc1ccc(F)c(Nc2cc(-c3nc(N4CCC5NCCCC54)c4c(C5CCC5)cncc4n3)ccn2)n1` (stereo not drawn) [Example 124, {4-[5-Cyclobutyl-4-(octahydro-pyrrolo[3,2-b]pyridin-1-yl)-pyrido[3,4-d]pyrimidin-2-yl]-pyridin-2-yl}-(3,6-difluoro-pyridin-2-yl)-amine]: the IC50 was less than 100 nM.

With `c1ccc(Nc2cc(-c3nc(N4CCC5NCCCC54)c4c(C5CCC5)cncc4n3)ccn2)cc1` (stereo not drawn) [Example 125, {4-[5-Cyclobutyl-4-(octahydro-pyrrolo[3,2-b]pyridin-1-yl)-pyrido[3,4-d]pyrimidin-2-yl]-pyridin-2-yl}-phenyl-amine], the IC50 was less than 100 nM.

As to `CC1CNCCC1Nc1nc(-c2ccnc(Nc3nc(F)c(F)cc3F)c2)nc2cncc(C3CCC3)c12` (stereo not drawn) [Example 126, {5-Cyclobutyl-2-[2-(3,5,6-trifluoro-pyridin-2-ylamino)-pyridin-4-yl]-pyrido[3,4-d]pyrimidin-4-yl}-(3-methyl-piperidin-4-yl)-amine], the IC50 is less than 100 nM.

Consider `CC1CNCCC1Nc1nc(-c2ccnc(Nc3nc(F)ccc3F)c2)nc2cncc(C3CCC3)c12` (stereo not drawn) [Example 127, {5-Cyclobutyl-2-[2-(3,6-difluoro-pyridin-2-ylamino)-pyridin-4-yl]-pyrido[3,4-d]pyrimidin-4-yl}-(3-methyl-piperidin-4-yl)-amine], for which the IC50 is less than 100 nM.

For the compound `Clc1ccccc1-c1cc2c(-c3nc(N4CCC5NCCC54)c4c(C5CC5)cncc4n3)ccnc2[nH]1` (stereo not drawn) [Example 128, 2-[2-(2-Chloro-phenyl)-1H-pyrrolo[2,3-b]pyridin-4-yl]-5-cyclopropyl-4-(hexahydro-pyrrolo[3,2-b]pyrrol-1-yl)-pyrido[3,4-d]pyrimidine], the IC50 is less than 100 nM.

With `Clc1ccccc1-c1cc2c(-c3nc(N4CCC5NCCCC54)c4c(C5CC5)cncc4n3)ccnc2[nH]1` (stereo not drawn) [Example 129, 2-[2-(2-Chloro-phenyl)-1H-pyrrolo[2,3-b]pyridin-4-yl]-5-cyclopropyl-4-(octahydro-pyrrolo[3,2-b]pyridin-1-yl)-pyrido [3,4-d]pyrimidine], the IC50 is less than 100 nM.

`Clc1cc2c(-c3nc(N4CCNCC4)c4c(C5CCC5)cncc4n3)ccnc2[nH]1` [Example 130, 2-(2-Chloro-1H-pyrrolo[2,3-b]pyridin-4-yl)-5-cyclobutyl-4-piperazin-1-yl-pyrido[3,4-d]pyrimidine]: the IC50 is less than 100 nM.

For the compound `c1ncc(-c2cc3c(-c4nc(N5CCNCC5)c5c(C6CCC6)cncc5n4)ccnc3[nH]2)cn1` [Example 131, 5-Cyclobutyl-4-piperazin-1-yl-2-(2-pyrimidin-5-yl-1H-pyrrolo[2,3-b]pyridin-4-yl)-pyrido[3,4-d]pyrimidine], the IC50 was less than 100 nM.

With `Cn1cc(-c2cc3c(-c4nc(N5CCNCC5)c5c(C6CCC6)cncc5n4)ccnc3[nH]2)cn1` [Example 132], the IC50 was less than 100 nM.

Consider `CCSc1cc2c(-c3nc(N4CCNCC4)c4c(C5CCC5)cncc4n3)ccnc2[nH]1` [Example 133, 5-Cyclobutyl-2-(2-ethylsulfanyl-1H-pyrrolo[2,3-b]pyridin-4-yl)-4-piperazin-1-yl-pyrido[3,4-d]pyrimidine], for which the IC50 was less than 100 nM.

For the compound `CCSc1cc2c(-c3nc(N4CCNCC4)c4c(C5CC5)cncc4n3)ccnc2[nH]1` [Example 134, 5-Cyclopropyl-2-(2-ethylsulfanyl-1H-pyrrolo[2,3-b]pyridin-4-yl)-4-piperazin-1-yl-pyrido[3,4-d]pyrimidine], the half-inhibitory concentration (IC50) is less than 100 nM.

For the compound `CC1(C)CNCCC1Nc1nc(-c2ccnc(Nc3cc4ccccn4n3)c2)nc2cncc(C3CCC3)c12` (stereo not drawn) [Example 136, {5-Cyclobutyl-2-[2-(pyrazolo[1,5-a]pyridin-2-ylamino)-pyridin-4-yl]-pyrido[3,4-d]pyrimidin-4-yl}-(3,3-dimethyl-piperidin-4-yl)-amine], the half-maximal inhibitory concentration (IC50) was less than 100 nM.

On to `CC1(C)CC(Nc2nc(-c3ccnc(Nc4nc(F)c(F)cc4F)c3)nc3cncc(C4CCC4)c23)CCN1` (stereo not drawn) [Example 137, {5-Cyclobutyl-2-[2-(3,5,6-trifluoro-pyridin-2-ylamino)-pyridin-4-yl]-pyrido[3,4-d]pyrimidin-4-yl}-(2,2-dimethyl-piperidin-4-yl)-amine], for which the IC50 is less than 100 nM.

Turning to `CC1(C)CC(Nc2nc(-c3ccnc(Nc4nc(F)ccc4F)c3)nc3cncc(C4CCC4)c23)CCN1` (stereo not drawn) [Example 138, {5-Cyclobutyl-2-[2-(3,6-difluoro-pyridin-2-ylamino)-pyridin-4-yl]-pyrido[3,4-d]pyrimidin-4-yl}-(2,2-dimethyl-piperidin-4-yl)-amine], the IC50 is less than 100 nM.

On to `Clc1ccc(-c2cc3c(-c4nc(N5CCNCC5)c5c(C6CC6)cncc5n4)ccnc3[nH]2)cc1` [Example 139, 2-[2-(4-Chloro-phenyl)-1H-pyrrolo[2,3-b]pyridin-4-yl]-5-cyclopropyl-4-piperazin-1-yl-pyrido[3,4-d]pyrimidine], for which the IC50 is less than 100 nM.

Take `Clc1ccc(-c2cc3c(-c4nc(N5CCC6NCCC65)c5c(C6CC6)cncc5n4)ccnc3[nH]2)cc1` (stereo not drawn) [Example 140, 2-[2-(4-Chloro-phenyl)-1H-pyrrolo[2,3-b]pyridin-4-yl]-5-cyclopropyl-4-(hexahydro-pyrrolo[3,2-b]pyrrol-1-yl)-pyrido[3,4-d]pyrimidine]: the IC50 was less than 100 nM.

For `c1ccc2c(c1)[nH]c1nccc(-c3nc(N[C@@H]4CCCNCC4)c4c(C5CCC5)cncc4n3)c12` [Example 141, (R)-Azepan-4-yl-[5-cyclobutyl-2-(9H-pyrido[2,3-b]indol-4-yl)-pyrido[3,4-d]pyrimidin-4-yl]-amine], the half-maximal inhibitory concentration (IC50) was less than 100 nM.

On to `Clc1ccc(Cl)c(-c2cc3c(-c4nc(N5CCC6NCCCC65)c5c(C6CC6)cncc5n4)ccnc3[nH]2)c1` (stereo not drawn) [Example 142, 5-Cyclopropyl-2-[2-(2,5-dichloro-phenyl)-1H-pyrrolo[2,3-b]pyridin-4-yl]-4-(octahydro-pyrrolo [3,2-b]pyridin-1-yl)-pyrido[3,4-d]pyrimidine], for which the IC50 is less than 100 nM.

As for `c1ccn2nc(Nc3cc(-c4nc(N5CCC6CNCCC65)c5c(C6CC6)cncc5n4)ccn3)nc2c1` (stereo not drawn) [Example 152, {4-[5-Cyclopropyl-4-(octahydro-pyrrolo[3,2-c]pyridin-1-yl)-pyrido [3,4-d]pyrimidin-2-yl]-pyridin-2-yl}-[1,2,4]triazolo[1,5-a] pyridin-2-yl-amine], the 50% inhibitory concentration (IC50) lay in the range of 1000 to 10000 nM.

With `Cc1cc2c(-c3nc(N[C@H]4CCNCC4(C)C)c4c(C5CC5)cncc4n3)ccnc2[nH]1` [Example 153, [5-Cyclopropyl-2-(2-methyl-1H-pyrrolo[2,3-b]pyridin-4-yl)-pyrido[3,4-d]pyrimidin-4-yl]-((S)-3,3-dimethyl-piperidin-4-yl)-amine], the 50% inhibitory concentration (IC50) fell in the range of 100 to 1000 nM.

For `Cc1cc2c(-c3nc(N[C@@H]4CCNCC4(C)C)c4c(C5CC5)cncc4n3)ccnc2[nH]1` [Example 154, [5-Cyclopropyl-2-(2-methyl-1H-pyrrolo[2,3-b]pyridin-4-yl)-pyrido[3,4-d]pyrimidin-4-yl]-((R)-3,3-dimethyl-piperidin-4-yl)-amine], the IC50 is less than 100 nM.

These data come from patent US10414763B2 (CANCER RESEARCH TECHNOLOGY LIMITED, priority 2014, dated 2019).
